In ChEMBL document CHEMBL1909046, “DrugMatrix in vitro pharmacology data”:

Key:
[1] = DRUGMATRIX: Glutamate, Kainate radioligand binding (ligand: [3H] Kainic acid); assay type: cell membranes, Rattus norvegicus, Wistar, Brain, Membrane; conditions: Not Active = under 50% inhibition at 10 µM
Histamine H2 receptor = Histamine H2 receptor (Homo sapiens, UniProt P25021); assay type: cell membranes, CHO-K1, Membrane; note: in other assays of this panel Not Active means under 50% inhibition at 10 µM
[2] = target: Mitogen-activated protein kinase 14 (Homo sapiens, UniProt Q16539); parameters: species or system Escherichia coli;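 note: inhibition of p38alpha enzyme activity in a biochemical kinase assay, with myelin basic protein serving as substrate; in other assays of this panel Not Active means under 50% inhibition at 10 µM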
[3] = target: Receptor tyrosine-protein kinase erbB-2 (Homo sapiens, UniProt P04626); test: biochemical; assay type: cell-based, Insect cells; conditions: insect cells;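 note: inhibition of HER2 kinase enzyme activity, measured with Poly(Glu:Tyr) as the phosphorylation substrate; in other assays of this panel Not Active means under 50% inhibition at 10 µM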
Androgen receptor = target: T1, Androgen receptor (Rattus norvegicus, UniProt P15207); note: in other assays of this panel Not Active means under 50% inhibition at 10 µM
T1 sequence (P15207 whole entry): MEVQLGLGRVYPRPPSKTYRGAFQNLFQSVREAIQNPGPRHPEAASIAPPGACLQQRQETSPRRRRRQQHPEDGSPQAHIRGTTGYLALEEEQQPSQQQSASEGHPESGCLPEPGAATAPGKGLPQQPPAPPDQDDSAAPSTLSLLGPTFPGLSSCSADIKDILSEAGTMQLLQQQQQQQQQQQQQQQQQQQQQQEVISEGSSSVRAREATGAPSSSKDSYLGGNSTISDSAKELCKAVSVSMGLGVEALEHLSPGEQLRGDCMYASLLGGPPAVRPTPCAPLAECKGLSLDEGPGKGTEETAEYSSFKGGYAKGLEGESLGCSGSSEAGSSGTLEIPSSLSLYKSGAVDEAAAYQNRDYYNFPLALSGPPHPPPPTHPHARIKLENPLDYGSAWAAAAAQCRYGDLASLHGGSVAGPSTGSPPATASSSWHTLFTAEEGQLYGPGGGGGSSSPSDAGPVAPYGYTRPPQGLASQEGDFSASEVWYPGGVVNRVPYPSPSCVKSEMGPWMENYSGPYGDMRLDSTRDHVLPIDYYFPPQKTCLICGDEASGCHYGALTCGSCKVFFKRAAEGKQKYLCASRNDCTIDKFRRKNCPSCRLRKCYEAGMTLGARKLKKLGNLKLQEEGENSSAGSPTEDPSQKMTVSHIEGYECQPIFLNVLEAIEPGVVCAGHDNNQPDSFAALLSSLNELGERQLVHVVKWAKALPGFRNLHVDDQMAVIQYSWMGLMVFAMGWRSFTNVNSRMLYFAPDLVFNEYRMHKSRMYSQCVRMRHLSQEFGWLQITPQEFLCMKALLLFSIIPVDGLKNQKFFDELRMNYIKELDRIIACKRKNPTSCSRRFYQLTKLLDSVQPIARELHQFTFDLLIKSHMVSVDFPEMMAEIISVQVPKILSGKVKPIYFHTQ

Cytochrome P450 2D6 = Cytochrome P450 2D6 (Homo sapiens, UniProt P10635); note: in other assays of this panel Not Active means under 50% inhibition at 10 µM
Chain of Cytochrome P450 2D6 (P10635 whole entry): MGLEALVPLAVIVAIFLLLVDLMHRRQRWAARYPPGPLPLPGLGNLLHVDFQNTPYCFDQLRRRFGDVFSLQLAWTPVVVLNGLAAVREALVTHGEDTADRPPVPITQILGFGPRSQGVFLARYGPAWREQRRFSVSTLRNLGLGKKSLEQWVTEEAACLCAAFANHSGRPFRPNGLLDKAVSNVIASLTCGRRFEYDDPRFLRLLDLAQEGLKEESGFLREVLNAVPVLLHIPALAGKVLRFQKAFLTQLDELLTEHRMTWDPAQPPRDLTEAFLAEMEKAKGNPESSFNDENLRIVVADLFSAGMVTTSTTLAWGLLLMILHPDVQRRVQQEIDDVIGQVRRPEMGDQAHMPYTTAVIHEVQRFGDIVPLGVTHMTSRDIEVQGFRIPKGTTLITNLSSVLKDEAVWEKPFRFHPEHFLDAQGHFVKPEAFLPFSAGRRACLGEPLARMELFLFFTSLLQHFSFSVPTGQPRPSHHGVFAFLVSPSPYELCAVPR

Chain of Receptor tyrosine-protein kinase erbB-2 (P04626 whole entry): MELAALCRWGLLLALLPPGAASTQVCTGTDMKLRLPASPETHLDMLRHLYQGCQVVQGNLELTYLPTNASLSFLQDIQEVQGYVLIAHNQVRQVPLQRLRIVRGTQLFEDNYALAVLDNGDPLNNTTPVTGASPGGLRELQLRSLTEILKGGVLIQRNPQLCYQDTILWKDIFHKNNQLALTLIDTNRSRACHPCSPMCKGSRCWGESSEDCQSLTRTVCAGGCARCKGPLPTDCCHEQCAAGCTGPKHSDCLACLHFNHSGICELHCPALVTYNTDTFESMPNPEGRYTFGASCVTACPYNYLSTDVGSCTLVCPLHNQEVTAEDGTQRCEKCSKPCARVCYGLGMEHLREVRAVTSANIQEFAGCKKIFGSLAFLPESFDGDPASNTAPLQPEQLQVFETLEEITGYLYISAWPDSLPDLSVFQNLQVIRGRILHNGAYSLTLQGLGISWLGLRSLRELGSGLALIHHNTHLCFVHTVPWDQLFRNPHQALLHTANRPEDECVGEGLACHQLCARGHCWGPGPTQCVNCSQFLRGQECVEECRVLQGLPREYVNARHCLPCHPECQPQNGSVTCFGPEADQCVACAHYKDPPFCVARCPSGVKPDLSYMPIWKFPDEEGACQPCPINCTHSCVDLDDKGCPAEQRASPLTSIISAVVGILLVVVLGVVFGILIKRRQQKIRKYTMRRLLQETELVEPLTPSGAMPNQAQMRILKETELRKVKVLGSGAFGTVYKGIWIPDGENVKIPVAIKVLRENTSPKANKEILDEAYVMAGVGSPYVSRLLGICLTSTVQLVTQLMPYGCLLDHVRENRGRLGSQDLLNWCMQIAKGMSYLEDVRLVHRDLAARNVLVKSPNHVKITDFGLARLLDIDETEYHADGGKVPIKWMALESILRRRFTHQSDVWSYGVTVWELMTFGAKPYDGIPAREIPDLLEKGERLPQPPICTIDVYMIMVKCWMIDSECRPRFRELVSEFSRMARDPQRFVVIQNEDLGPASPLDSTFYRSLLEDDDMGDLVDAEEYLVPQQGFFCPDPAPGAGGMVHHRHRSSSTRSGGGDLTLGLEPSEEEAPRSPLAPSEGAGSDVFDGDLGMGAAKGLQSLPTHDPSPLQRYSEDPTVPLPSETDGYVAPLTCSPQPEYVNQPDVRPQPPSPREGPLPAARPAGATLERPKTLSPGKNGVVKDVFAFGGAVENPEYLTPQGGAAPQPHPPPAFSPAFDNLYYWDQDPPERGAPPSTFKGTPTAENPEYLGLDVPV
Chain of Histamine H2 receptor (P25021 whole entry): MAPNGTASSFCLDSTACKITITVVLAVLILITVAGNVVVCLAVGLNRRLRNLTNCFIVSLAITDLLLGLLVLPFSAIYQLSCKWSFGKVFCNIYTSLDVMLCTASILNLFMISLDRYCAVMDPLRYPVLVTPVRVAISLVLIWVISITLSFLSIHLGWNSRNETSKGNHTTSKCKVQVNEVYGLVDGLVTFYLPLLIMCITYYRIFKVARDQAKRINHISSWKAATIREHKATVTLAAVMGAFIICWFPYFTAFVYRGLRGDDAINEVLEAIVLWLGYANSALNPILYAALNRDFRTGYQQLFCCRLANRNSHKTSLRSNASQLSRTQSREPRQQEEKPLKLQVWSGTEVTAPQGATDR
Chain of Mitogen-activated protein kinase 14 (Q16539 whole entry): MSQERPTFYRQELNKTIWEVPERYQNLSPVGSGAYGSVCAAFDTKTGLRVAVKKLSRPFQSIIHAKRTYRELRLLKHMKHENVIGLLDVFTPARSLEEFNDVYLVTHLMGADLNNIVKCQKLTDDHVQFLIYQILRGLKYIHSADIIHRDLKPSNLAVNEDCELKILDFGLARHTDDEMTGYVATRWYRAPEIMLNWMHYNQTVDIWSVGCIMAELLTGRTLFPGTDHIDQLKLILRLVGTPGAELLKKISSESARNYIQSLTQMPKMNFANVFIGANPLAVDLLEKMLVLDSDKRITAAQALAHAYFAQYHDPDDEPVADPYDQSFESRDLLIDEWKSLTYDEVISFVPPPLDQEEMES

| SMILES | IC50 [1] | Ki [1] | IC50 (Histamine H2 receptor; cho-k1) | IC50 ([2]; read-out: IC50) [µM] | IC50 [3] | IC50 (Androgen receptor) | IC50 [2] | IC50 (Histamine H2 receptor; read-out: IC50) [µM] | Ki (Histamine H2 receptor; read-out: Ki) [µM] | IC50 (Cytochrome P450 2D6) [µM] |
| --- | --- | --- | --- | --- | --- | --- | --- | --- | --- | --- |
| Cc1c(C)c2c(c(C)c1O)CCC(C)(CN1CCN(c3cc(N4CCCC4)nc(N4CCCC4)n3)CC1)O2 (centres undefined) | Not Active | Not Active | Not Active | 5.6 | Not Active | Not Active |  |  |  |  |
| COc1ccc(CCN(C)CCCC(C#N)(c2ccc(OC)c(OC)c2)C(C)C)cc1OC (centres undefined) | Not Active | Not Active |  |  | Not Active |  | Not Active |  |  |  |
| CC(C)Cc1ccc([C@@H](C)C(=O)O)cc1 [(R)-IBUPROPHEN] | Not Active | Not Active | Not Active |  | Not Active |  | Not Active |  |  |  |
| CN(C)CCOC(c1ccccc1)c1ccccc1 [DIPHENHYDRAMINE] |  |  | Not Active |  | Not Active | Not Active | Not Active |  |  |  |
| Fc1ccc(C(c2ccc(F)cc2)N2CCN(C/C=C/c3ccccc3)CC2)cc1 [FLUNARIZINE] |  |  | Not Active |  | Not Active |  | Not Active |  |  |  |
| CNCCC(Oc1ccc(C(F)(F)F)cc1)c1ccccc1 (centres undefined) [FLUOXETINE] |  |  | Not Active |  | Not Active |  | Not Active |  |  |  |
| Cc1ccc(NC(=O)c2ccc(CN3CCN(C)CC3)cc2)cc1Nc1nccc(-c2cccnc2)n1 [IMATINIB] |  |  |  |  |  | Not Active |  | 1.96 | 1.93 |  |
| CC(C)Oc1ccc2c(=O)c(-c3ccccc3)coc2c1 [IPRIFLAVONE] | Not Active | Not Active | Not Active |  | Not Active |  | Not Active |  |  |  |
| CC(C)NCC(O)c1ccc(O)c(O)c1 (centres undefined) [ISOPROTERENOL] | Not Active | Not Active | Not Active |  | Not Active |  | Not Active |  |  |  |
| CNC1(c2ccccc2Cl)CCCCC1=O (centres undefined) [KETAMINE] | Not Active | Not Active | Not Active |  | Not Active |  | Not Active |  |  |  |
| N#Cc1ccc(C(c2ccc(C#N)cc2)n2cncn2)cc1 [LETROZOLE] | Not Active | Not Active | Not Active |  | Not Active | Not Active | Not Active |  |  |  |
| CCN1CCC[C@H]1CNC(=O)c1cc(S(N)(=O)=O)ccc1OC [LEVOSULPIRIDE] | Not Active | Not Active | Not Active |  | Not Active | Not Active | Not Active |  |  |  |
| CCN(CC)CC(=O)Nc1c(C)cccc1C [LIDOCAINE] | Not Active | Not Active | Not Active |  | Not Active | Not Active | Not Active |  |  |  |
| O=C1Nc2ccc(Cl)cc2C(c2ccccc2Cl)=NC1O (centres undefined) [LORAZEPAM] | Not Active | Not Active | Not Active |  | Not Active | Not Active | Not Active |  |  |  |
| CO[C@@H]1[C@@H](OC)[C@H](C)[C@@](O)(CC(=O)O)O[C@H]1[C@H](C)[C@H]1O[C@@]2(CC[C@@](C)([C@H]3CC[C@@](C)([C@@H]4O[C@@H]([C@H]5O[C@](C)(O)[C@H](C)C[C@@H]5C)C[C@@H]4O[C@@H]4C[C@H](OC)[C@@H](OC)[C@H](C)O4)O3)O2)C[C@H](O)[C@H]1C [MADURAMICIN ACID] | Not Active | Not Active | Not Active |  | Not Active |  | Not Active |  |  | 1 |
| COc1c2occc2cc2ccc(=O)oc12 [METHOXSALEN] | Not Active | Not Active | Not Active |  | Not Active | Not Active | Not Active |  |  |  |
| C[C@H]1C[C@@H]2[C@H]([C@@H](O)C[C@@]3(C)[C@H]2CC[C@]3(O)C(=O)CO)[C@@]2(C)C=CC(=O)C=C12 [METHYLPREDNISOLONE] | Not Active | Not Active | Not Active |  | Not Active |  | Not Active |  |  |  |
| Cc1cccc(C)c1OCC(C)N (centres undefined) [MEXILETINE] | Not Active | Not Active | Not Active |  | Not Active |  | Not Active |  |  |  |
